A short description of data set [1]: Solubility in water / aqueous media (observation). The following applies: solid tosylate; dissolves easily in MeOH then dilutable with water.
Data set [2] has as its target T1, microsomal leucine aminopeptidase (EC 3.4.11.2; PLA) (Sus scrofa, UniProt P15145).
T1 construct: The microsomal leucine aminopeptidase (EC 3.4.11.2) of pig kidney was purchased from Sigma; purchased Sigma 069K7356; host or cells: pig kidney (tissue-derived enzyme)
T1 sequence (P15145 1-963): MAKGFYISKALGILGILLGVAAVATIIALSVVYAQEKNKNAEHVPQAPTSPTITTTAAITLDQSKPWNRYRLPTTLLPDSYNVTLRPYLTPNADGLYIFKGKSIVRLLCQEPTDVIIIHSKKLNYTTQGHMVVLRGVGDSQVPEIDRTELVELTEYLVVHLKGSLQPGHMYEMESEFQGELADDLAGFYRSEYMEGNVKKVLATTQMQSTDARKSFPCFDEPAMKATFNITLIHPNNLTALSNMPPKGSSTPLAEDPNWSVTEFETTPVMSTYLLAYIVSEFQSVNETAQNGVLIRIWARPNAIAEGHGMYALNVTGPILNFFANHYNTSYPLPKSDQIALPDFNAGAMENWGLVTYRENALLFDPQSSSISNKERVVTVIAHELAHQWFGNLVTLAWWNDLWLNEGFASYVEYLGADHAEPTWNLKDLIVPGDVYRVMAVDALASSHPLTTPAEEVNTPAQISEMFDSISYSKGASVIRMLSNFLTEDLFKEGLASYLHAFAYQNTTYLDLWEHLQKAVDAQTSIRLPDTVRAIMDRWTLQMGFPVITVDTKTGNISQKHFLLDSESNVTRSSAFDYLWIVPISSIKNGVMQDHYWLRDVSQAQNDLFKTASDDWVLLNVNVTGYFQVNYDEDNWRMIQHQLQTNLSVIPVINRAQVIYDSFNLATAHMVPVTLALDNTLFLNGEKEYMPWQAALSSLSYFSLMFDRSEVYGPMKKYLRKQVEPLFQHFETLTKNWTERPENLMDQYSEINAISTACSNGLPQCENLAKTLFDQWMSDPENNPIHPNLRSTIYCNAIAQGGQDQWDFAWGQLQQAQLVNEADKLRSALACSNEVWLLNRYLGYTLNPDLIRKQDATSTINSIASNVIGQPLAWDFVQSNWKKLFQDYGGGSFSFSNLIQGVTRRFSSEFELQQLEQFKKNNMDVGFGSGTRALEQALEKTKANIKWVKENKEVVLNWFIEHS
The data set is described as follows: Enzymatic test: fluorescence of probes incubated with microsomal leucine aminopeptidase (PLA) in multi-well plates. It is filed as biochemical, pig. The following applies: for Delay for obtaining an intense increase in the signal: different probe concentrations, FIG. 5, generally less than 100 minutes. On the procedure: Preamble: Within the scope of the invention, upon applying the enzymatic tests, once the minimum, concentration allowing triggering of crystal nucleation is reached, a solid fluorophore may first be deposited on the walls of the receptacle (a well in a multi-well plate), before beginning to deposit on the bottom of the receptacle. The delay associated with the triggering of nucleation (≧10 mins) is well seen on the kinetic curves in the figures shown. The enzymatic tests carried out are illustrated with the appended figures.
(§1) The probes I.1 and I.2 were evaluated by incubation with the target enzyme, microsomal leucine aminopeptidase (EC 3.4.11.2; “PLA”; commercial) in an in vitro medium in multi-well micro-plates designed for fluorescence readers.
The main tests were conducted at 25° C., in solutions buffered to pH 7.4 (physiological pH). […] A temperature of 25° C. was therefore preferred.
(§2) All the final solutions for the enzymatic tests were buffered to a pH varying from 7.4 to 7.6 (depending on the room temperature) with a 25 mM (total concentration) of Tris/Tris.HCl buffer, containing 11 mM of NaCl. The microsomal leucine aminopeptidase (EC 3.4.11.2) of pig kidney was purchased from Sigma (catalogue no. 069K7356) in the form of a suspension in ammonium sulfate (3.5 M) containing MgCl2 (10 mM), with 3.5 mg·mL^−1 of protein contents and 10-40 U/mg of protein, as determined for the standard substrate, leucyl p-nitroanilide, and was stored in a fridge at 4° C. for a maximum of 40 days before its use. […] Analyses Carried Out:
(§3) The analyses were carried out with reading of the fluorescence values, measured in RFU, versus time. The analyses were conducted in black polypropylene plates with 96 (Corning, Corning Inc.) or with 384 (Nunclon, Nunc Inc.) wells, and recorded on a microplate fluorimeter (Mithras LB940 from Berthold Technologies). This fluorimeter was used in a so-called repeated mode, where the fluorescence was measured with a reading, here selected to be 3 seconds per well, the excitation beam with a diameter of 4 mm being centered in the well. […] It should be noted that this mode of use is close to the operation of optical high throughput screening by fluorescence, which is one of the applications envisioned for these types of probes. […] In the scanning mode, the wells were divided into a square read-out grid, typically covering the well with a resolution of 8×8 to 15×15 pixels, each of the pixels being read between 0.1 and 0.3 s. This scanning mode partly removes the errors and the read-out noise of the total fluorescence of the well subject to the repeated mode, subsequently to the tendency of the fluorophore once it is released of depositing a first phase on the walls. The scanning mode as implemented here is also slower and less suitable for qualitatively following reaction kinetics. It should be noted that this mode of use is close to the operation of cell counting, which is a second application envisioned for these types of probes.
The excitation wavelength for the probes I.1 and I.2 (based on HPQ) was set to 355 nm, and the localized emission wavelength was set to 510 nm, since the fluorimeter used has filters of the bandpass type for selecting these wavelengths with a bandwidth of 14 nm for the excitation beam and of 10 nm for the emission one.
The enzyme was added last to the prepared wells. After adding the enzyme, the contents of the well were sucked up and released twice with a pipette, in order to homogenize as much as possible the mixture. […] The addition of the enzyme well by well was accomplished by observing the reading delay between the wells, so that the reaction times of each well were the same for each readout of the plate in order to allow comparison of the acquired data for different wells (in these experiments, there was a delay between 3 seconds and 20 seconds, between the readout of the neighboring wells, to be multiplied by up to 77 wells read by acquisition at a time t). […]

The nature of data set [3]: Stability controls: fluorescence of probes in buffered aqueous solution without PLA enzyme (spontaneous hydrolysis, falsely positive signal). The following applies: for Signal increase relative to noise in the absence of enzyme (stability to spontaneous hydrolysis): 100 μM, 660 minutes, buffered pH ~7.6, no PLA, FIG. 4. The data set is classed as physicochemical. On the procedure:
as §1, §2, §3
A series of control measurements of background fluorescence was carried out, with wells containing some enzyme in the standard buffer without any probe. A last series of measurements was conducted by using a solution of probe I.1 prepared three weeks beforehand (“3 wks”), in order to obtain another estimation of the robustness of this probe towards spontaneous hydrolysis in practice. Each readout lasted for 3 seconds per well. […]

Where [4] appears, read: actual 10 μM, plateau not reached, underestimated.
Setting [5] is: actual 18 μM, plateau not reached, underestimated.

As for `CC(C)C[C@H](N)C(=O)NCC1CCCCN1C(=O)Oc1ccccc1-c1nc2ccccc2c(=O)[nH]1` (some centres unmarked) [I.1], in data set [1], the Solubility in water entry is reported as “not very soluble in water”. Further, the “Predicted Conc. (initial probe concentration estimated from the average ratio)” value in data set [2] (setting [4]) was 0 µM; in data set [2] (setting [5]), 6 µM; in data set [2] (actual 32 μM), 26 µM; in data set [2] (actual 59 μM) it was 42 µM; in data set [2] (actual 100 μM) it was 108 µM; in data set [2] (actual 378 μM, 3 wks stored solution) it was 419 µM. The “Signal/Conc. (signal plateau/concentration ratio)” value in data set [2] (probe 32 μM, with PLA) is 72794 RFU μM^−1; in data set [2] (probe 59 μM, with PLA), 63054 RFU μM^−1; in data set [2] (probe 100 μM, with PLA), 95711 RFU μM^−1; in data set [2] (probe 378 μM, 3 wks stored solution, with PLA), 98684 RFU μM^−1. In addition, in data set [2] (with PLA, 11 h acquisition, FIG. 6), the “Photo-degradation: signals once the plateau is reached, under irradiation of the fluorescence reader” value is “do not decrease over time”. The “Delay for obtaining an intense increase in the signal” value in data set [2] (with PLA) is “about 10 minutes”. In addition, in data set [3], the “Signal increase relative to noise in the absence of enzyme (stability to spontaneous hydrolysis)” value was “NO signal increase”. Moreover, the “Falsely positive signal due to spontaneous hydrolysis of the probe” value in data set [3] (probe 209 μM and 80 μM without enzyme, 40 hours of incubation, FIG. 1) is given as “absence of any falsely positive signal due to spontaneous hydrolysis of the probe”.
For the compound `CC(C)C[C@H](N)C(=O)NCC(C)(C)N(C)C(=O)Oc1ccccc1-c1nc2ccccc2c(=O)[nH]1` [I.2], the “Predicted Conc. (initial probe concentration estimated from the average ratio)” value was 1 µM in data set [2] (setting [4]); 6 µM in data set [2] (setting [5]); 40 µM in data set [2] (actual 32 μM); 63 µM in data set [2] (actual 59 μM); 98 µM in data set [2] (actual 100 μM). Also, the “Signal/Conc. (signal plateau/concentration ratio)” value was determined as 110289 RFU μM^−1 in data set [2] (probe 32 μM, with PLA); 95096 RFU μM^−1 in data set [2] (probe 59 μM, with PLA); 87269 RFU μM^−1 in data set [2] (probe 100 μM, with PLA). The “Delay for obtaining an intense increase in the signal” value in data set [2] (with PLA) was “about 10 minutes”. Further, in data set [3], the “Signal increase relative to noise in the absence of enzyme (stability to spontaneous hydrolysis)” value is “NO signal increase”. Moreover, the “Degradation in the absence of enzyme” value in data set [3] (probe 100 μM without enzyme, FIG. 3) is recorded as “does not degrade in the absence of enzyme”.

Values taken from patent publication US9605296B2, “Fluorogenic peptidase substrate” (ECOLE NORMALE SUPERIEURE DE LYON, priority 2011, dated 2017).
